Measured values reported in patent US3975389A, “Caffeine derivatives” (priority 1973, dated 1976).

Legend:
[1] = test system: bronchial spasm caused by a broncho-constrictor aerosol of histamine hydrochloride; test: broncholitic activity in the awake guinea-pig: percentage protection against bronchial spasm caused by histamine hydrochloride aerosol; format: in vivo
[2] = strengthening of the andiogenic convulsions test in the mouse; format: in vivo; details: in vivo, ip, intraperitoneal dose of 50 mg/kg, read-out: death of treated animals
Text: (§1) The undesired action on the central nervous system has been evaluated with the strengthening of the andiogenic convulsions test in the mouse (Werboff et coll., Amer. J. Physiol., 201, 830, 1961). As is well known, the theophilline derivatives potentiate the effects of the acoustic stimulus (motory agitation, clonic and tonic convulsions which may lead to the death of the animals).

[3] = test system: effects of the acoustic stimulus (motory agitation, clonic and tonic convulsions); test: as above; format: in vivo; details: intraperitoneal dose of 50 mg/kg
Text: as §1

[4] = bronchial asthma therapy; known for the comparison compound; cited from earlier work
guinea-pigs = test: survival / late mortality of guinea-pigs treated in the broncholitic activity test (48 hours, oral route); details: in words; tardy mortality
acute toxicity, mouse = details: in vivo
Text: (§2) o) compound dissolved in physiological salt solution.
(§3) x) compound suspended in 5% arabic gum.

[5] = acute toxicity, guinea-pig; details: in vivo
Text: as §2, §3

[6] = survival / late mortality of guinea-pigs treated in the broncholitic activity test (48 hours, oral route); details: guinea pig, in vivo, po
[7] = i.p. route, 50 mg/kg, after 30' of the administration
[8] = i.p. route, 75 mg/kg, after 30' of the administration
[9] = oral route, 75 mg/kg, after 60' of the administration
[10] = oral route, 150 mg/kg, after 60' of the administration
[11] = ip, dissolved in physiological salt solution
[12] = po, per os, suspended in 5% arabic gum
[13] = i.p. route, 25 mg/kg, after 30' of the administration
[14] = oral route, 300 mg/kg, after 60' of the administration

Structure (SMILES)	Protection percentage from the spasm caused by histamine [1, 7] [%]	Protection percentage from the spasm caused by histamine [1, 8] [%]	Protection percentage from the spasm caused by histamine [1, 9] [%]	Protection percentage from the spasm caused by histamine [1, 10] [%]	LD50 (acute toxicity, mouse; [11]) [mg/kg]	LD50 (acute toxicity, mouse; [12]) [mg/kg]	Protection percentage from the spasm caused by histamine [1, 13] [%]	Protection percentage from the spasm caused by histamine [1, 14] [%]	survival at 48 h ([6]; 75 mg/kg) [%]	survival at 48 h ([6]; 150 mg/kg) [%]	survival at 48 h ([6]; 300 mg/kg) [%]	further results
Cn1c(=O)c2[nH]cnc2n(C)c1=O [Aminophilline, reference compound]	24	80	31	95	–	–	–	–	–	–	–	Protection percentage from the spasm caused by histamine ([1]; i.p. route, 100 mg/kg, after 30' of the administration): 100%; Protection percentage from the spasm caused by histamine ([1]; i.p. route, 150 mg/kg, after 30' of the administration): 100%; Protection percentage from the spasm caused by histamine ([1]; oral route, 50 mg/kg, after 60' of the administration): 14%; Protection percentage from the spasm caused by histamine ([1]; oral route, 100 mg/kg, after 60' of the administration): 92%; mortality [2]: 50%; strengthening of the effects of the acoustic stimulus [3]: remarkable strengthening of the effects of the acoustic stimulus; undesired secondary effects [4]: excitement caused by caffeine and irritation of the gastric mucous membrane; mortality of guinea-pigs subjected to the broncholitic activity test (guinea-pigs): tardy high mortality
Cc1ccnc(C)c1C(=O)OC(C)c1nc2c(c(=O)n(C)c(=O)n2C)n1C (stereo not drawn) [8-[α-(2,4-dimethylnicotinoyloxy)-ethyl]-caffeine]	–	–	–	–	320	500	–	–	–	–	–	–
CC(OC(=O)c1cccnc1)c1nc2c(c(=O)n(C)c(=O)n2C)n1C (stereo not drawn) [8-[α-(nicotinoyloxy)-ethyl]-caffeine]	–	–	–	–	445	520	–	–	–	–	–	LD50 [5, 11]: 220 mg/kg; LD50 [5, 12]: 440 mg/kg
CC(OC(=O)c1cccnc1)c1nc2c(c(=O)n(C)c(=O)n2C)n1C.Cl (stereo not drawn) [386/770, 8-[α-(nicotinoyloxy)-ethyl]-caffeine monohydrochloride]	38	94	13	26	–	–	35	65	100	100	100	–
Cc1ccnc(C)c1C(=O)OC(C)c1nc2c(c(=O)n(C)c(=O)n2C)n1C.Cl (stereo not drawn) [386/986, 8-[α-(2,4-dimethylnicotinoyloxy)-ethyl]-caffeine monohydrochloride]	39	85	39	54	–	–	22	80	100	100	100	–
